We go through 32 compounds from US11981661B2, “Heterocyclic compounds” (Hoffmann-La Roche Inc., priority 2020, dated 2024).

This test concerns the target T1, MAGL (Homo sapiens, UniProt Q99685).
T1 sequence (Q99685 1-303): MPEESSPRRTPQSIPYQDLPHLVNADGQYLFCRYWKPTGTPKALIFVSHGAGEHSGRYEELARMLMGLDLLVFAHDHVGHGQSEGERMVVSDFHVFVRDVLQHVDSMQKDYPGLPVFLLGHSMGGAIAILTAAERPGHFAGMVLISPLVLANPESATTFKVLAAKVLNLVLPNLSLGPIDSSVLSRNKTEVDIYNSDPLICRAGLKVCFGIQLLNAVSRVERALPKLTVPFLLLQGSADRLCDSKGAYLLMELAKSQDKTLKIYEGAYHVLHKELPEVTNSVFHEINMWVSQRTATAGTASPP
In words: 2-AG assay (MAGL inhibitory activity, hydrolysis of 2-arachidonoylglycerol followed by mass spectrometry). The format is biochemical. As to conditions: 50 pM MAGL, 8 μM 2-arachidonoylglycerol, 15 min preincubation, 30 min incubation at RT, concentration range 12.5 μM to 0.8 pM. The essentials: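 Activity derived from the arachidonic acid/d8-arachidonic acid MS intensity ratio after acetonitrile quench. Reaction: 8 μM 2-AG substrate with 50 pM MAGL, 30 min at RT, following 15 min RT compound preincubation; buffer 50 mM TRIS, 1 mM EDTA, 0.01% Tween; final compound range 12.5 μM to 0.8 pM.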

Each structure is given as a SMILES string.

Consider `CC(C)(C)c1ccc(C2CN(C(=O)CC[C@@H]3COC(=O)N3)C2)nc1` [Example 72, (4R)-4-[3-[3-(5-tert-Butyl-2-pyridyl)azetidin-1-yl]-3-oxo-propyl]oxazolidin-2-one], for which the IC50 (usually the concentration that inhibits the measured activity by half) was 7 nM.
As for `CS(=O)(=O)c1ccc(-c2ccc(C3CN(C(=O)CC[C@@H]4COC(=O)N4)C3)cc2)c(Cl)c1` [Example 73, (4R)-4-[3-[3-[4-(2-Chloro-4-methyl-sulfonyl-phenyl)phenyl]azetidin-1-yl]-3-oxo-propyl]oxazolidin-2-one], the figure is 1 nM.
For the compound `O=C1N[C@H](CCC(=O)N2CC(c3ccc(S(=O)(=O)c4ccccc4)cc3)C2)CO1` [Example 74, (4R)-4-[3-[3-[4-(Benzenesulfonyl)phenyl]azetidin-1-yl]-3-oxo-propyl]oxazolidin-2-one], the IC50 came to 5 nM. Against the preceding compound, the IC50 is about 5-fold higher.
As for `N#CCS(=O)(=O)c1ccc(C2CN(C(=O)CC[C@@H]3COC(=O)N3)C2)cc1` [Example 75, 2-[4-[1-[3-[(4R)-2-Oxooxazolidin-4-yl]propanoyl]azetidin-3-yl]phenyl]sulfonyl-acetonitrile], the figure is 57 nM.
Turning to `O=C1N[C@H](CCC(=O)N2CC(c3ccc(S(=O)(=O)C(F)(F)F)cc3)C2)CO1` [Example 76, (4R)-4-[3-Oxo-3-[3-[4-(trifluoro-methylsulfonyl)phenyl]azetidin-1-yl]propyl]oxazolidin-2-one], the midpoint of inhibition, the IC50, lay at 81 nM.
`O=C1N[C@H](CCC(=O)N2CC(c3ccc(S(=O)(=O)C4CCCCC4)cc3)C2)CO1` [Example 77, (4R)-4-[3-[3-(4-Cyclohexylsulfonyl-phenyl)azetidin-1-yl]-3-oxo-propyl] oxazolidin-2-one]: the IC50 is 35 nM.
As for `N#CC1(c2ccc(C3CN(C(=O)CC[C@@H]4COC(=O)N4)C3)cn2)CCC1` [Example 78, 1-[5-[1-[3-[(4R)-2-Oxooxazolidin-4-yl]propanoyl]azetidin-3-yl]-2-pyridyl]cyclobutane-carbonitrile], the concentration for half-maximal inhibition (IC50) came out at 981 nM.
As for `Cc1ncccc1Oc1ccc(C2CN(C(=O)CC[C@@H]3COC(=O)N3)C2)cc1` [Example 79, (4R)-4-[3-[3-[4-[(2-Methyl-3-pyridyl)oxy]phenyl]azetidin-1-yl]-3-oxo-propyl]oxazolidin-2-one], the figure is 33 nM; as for `O=C1N[C@H](CCC(=O)N2CC(c3ccc(Oc4nccc(C5CC5)n4)cc3)C2)CO1` [Example 80, (4R)-4-[3-[3-[4-(4-Cyclopropyl-pyrimidin-2-yl)oxyphenyl]azetidin-1-yl]-3-oxo-propyl] oxazolidin-2-one], 27 nM.
The value for `CC(C)(C)Cn1nncc1-c1ccc(C2CN(C(=O)CC[C@@H]3COC(=O)N3)C2)cc1` [Example 81, (4R)-4-[3-[3-[4-[3-(2,2-Dimethyl-propyl)triazol-4-yl]phenyl]azetidin-1-yl]-3-oxo-propyl]oxazolidin-2-one] was 7 nM; that for `CS(=O)(=O)c1cc(Cl)ccc1-c1ccc(C2CN(C(=O)CC[C@@H]3COC(=O)N3)C2)cc1` [Example 82, (4R)-4-[3-[3-[4-(4-Chloro-2-methyl-sulfonyl-phenyl)phenyl]azetidin-1-yl]-3-oxo-propyl]oxazolidin-2-one] was 0.5 nM; that for `NC(=O)c1cc(Cl)ccc1Oc1ccc(C2CN(C(=O)CC[C@@H]3COC(=O)N3)C2)cn1` [Example 85, 5-Chloro-2-[[5-[1-[3-[(4R)-2-oxooxazolidin-4-yl]propanoyl]azetidin-3-yl]-2-pyridyl]oxy]benzamide] was 123 nM.
The compound `O=C1CSC[C@H](CCC(=O)N2CC(OCc3ccc(C(F)(F)F)cc3F)C2)N1` [Example 88, (5S)-5-[3-[3-[[2-Fluoro-4-(trifluoromethyl)phenyl]methoxy]azetidin-1-yl]-3-oxo-propyl]thiomorpholin-3-one] had an IC50 of 1300 nM.
The compound `O=C1N[C@H](CCC(=O)N2CC(c3ccc(N(CC4CC4)c4ccccc4)cc3)C2)CO1` [Example 89, (4R)-4-[3-[3-[4-[N-(Cyclopropylmethyl)anilino]phenyl]azetidin-1-yl]-3-oxo-propyl] oxazolidin-2-one] gave an IC50 of 0.02 nM. Against the preceding compound, the IC50 is about 65000-fold lower.
The value for `O=C1N[C@H](CCC(=O)N2CC(c3ccc(N(c4ccccc4)c4ccccc4)cc3)C2)CO1` [Example 90, (4R)-4-[3-Oxo-3-[3-[4-(N-phenylanilino)phenyl]azetidin-1-yl]propyl] oxazolidin-2-one] was 0.02 nM; that for `CC(C)(C)c1ccc(C2CN(C(=O)CC[C@@H]3COC(=O)N3)C2)cn1` [Example 91, (4R)-4-[3-[3-(6-tert-Butyl-3-pyridyl)azetidin-1-yl]-3-oxo-propyl]oxazolidin-2-one] was 357 nM.
As for `COc1ccc(N(C)c2ccc(C3CN(C(=O)CC[C@@H]4COC(=O)N4)C3)cn2)nc1` [Example 92, (4R)-4-[3-[3-[6-[(5-Methoxy-2-pyridyl)-methyl-amino]-3-pyridyl]azetidin-1-yl]-3-oxo-propyl]oxazolidin-2-one], the figure is 293 nM; as for `CN(c1ccccc1)c1ccc(C2CN(C(=O)CC[C@@H]3COC(=O)N3)C2)cn1` [Example 93, (4R)-4-[3-[3-[6-(N-Methyl-anilino)-3-pyridyl]azetidin-1-yl]-3-oxo-propyl]oxazolidin-2-one], 173 nM.
The value for `CC(C)c1ccc(N(C)c2ccc(C3CN(C(=O)CC[C@@H]4COC(=O)N4)C3)cn2)cc1` [Example 94, (4R)-4-[3-[3-[6-(4-Isopropyl-N-methyl-anilino)-3-pyridyl]azetidin-1-yl]-3-oxo-propyl]oxazolidin-2-one] was 10 nM; that for `O=C1N[C@H](CCC(=O)N2CC(c3ccc(N(CC4CC4)c4ccccc4)nc3)C2)CO1` [Example 95, (4R)-4-[3-[3-[6-[N-(Cyclopropyl-methyl)anilino]-3-pyridyl]azetidin-1-yl]-3-oxo-propyl]oxazolidin-2-one] was 0.35 nM; that for `COCCN(c1ccc(C2CN(C(=O)CC[C@@H]3COC(=O)N3)C2)cc1)c1cccnc1` [Example 96, (4R)-4-[3-[3-[4-[2-Methoxyethyl(3-pyridyl)amino]phenyl]azetidin-1-yl]-3-oxo-propyl]oxazolidin-2-one] was 2 nM.
As to `O=C1N[C@H](CCC(=O)N2CC3(C2)CN(S(=O)(=O)c2ccc(F)cc2C(F)(F)F)C3)CO1` [Example 97, (4R)-4-[3-[2-[4-Fluoro-2-(trifluoromethyl)phenyl]sulfonyl-2,6-diazaspiro[3.3]heptan-6-yl]-3-oxo-propyl] oxazolidin-2-one], the IC50 stood at 350 nM.
As for `CC(C)(C)CS(=O)(=O)N1CC2(CN(C(=O)CC[C@@H]3COC(=O)N3)C2)C1` [Example 98, (4R)-4-[3-[2-(2,2-Dimethylpropyl-sulfonyl)-2,6-diazaspiro[3.3]heptan-6-yl]-3-oxo-propyl]oxazolidin-2-one], the figure is 3370 nM; as for `O=C1N[C@H](CCC(=O)N2CC(c3ccc(N4CC(OCC(F)(F)F)C4)cc3)C2)CO1` [Example 99, (4R)-4-[3-Oxo-3-[3-[4-[3-(2,2,2-trifluoro-ethoxy)azetidin-1-yl]phenyl]azetidin-1-yl]propyl] oxazolidin-2-one], 5 nM.
For the compound `O=C1N[C@H](CCC(=O)N2CC(c3ccc(N4CC(C(F)(F)F)C4)cc3)C2)CO1` [Example 100, (4R)-4-[3-Oxo-3-[3-[4-[3-(trifluoromethyl)azetidin-1-yl]phenyl]azetidin-1-yl]propyl]oxazolidin-2-one], the IC50 worked out at 7 nM.
As for `O=C1N[C@H](CCC(=O)N2CC(c3cnc(C4(C(F)(F)F)CC4)nc3)C2)CO1` [Example 101, (4R)-4-[3-Oxo-3-(3-[2-[1-(trifluoro-methyl)cyclopropyl]pyrimidin-5-yl]azetidin-1-yl]propyl]oxazolidin-2-one], the figure is 481 nM.
As for `O=C1N[C@H](CCC(=O)N2CC(c3ccc(C4(C(F)(F)F)CC4)nc3)C2)CO1` [Example 102, (4R)-4-[3-Oxo-3-[3-[6-[1-(trifluoro-methyl)cyclopropyl]-3-pyridyl]azetidin-1-yl]propyl]oxazolidin-2-one], the figure is 420 nM.
As for `O=C1N[C@H](CCC(=O)N2CC(c3ccc(N4CCC(C(F)(F)F)C4)cn3)C2)CO1` (stereo partly drawn) [Example 103, (4R)-4-[3-Oxo-3-[3-[5-[3-(trifluoro-methyl)pyrrolidin-1-yl]-2-pyridyl]azetidin-1-yl]propyl]oxazolidin-2-one], the figure is 54 nM; as for `CS(=O)(=O)CC1CN(c2ccc(C3CN(C(=O)CC[C@@H]4COC(=O)N4)C3)cc2)C1` [Example 104, (4R)-4-[3-[3-[4-[3-(Methyl-sulfonylmethyl)azetidin-1-yl]phenyl]azetidin-1-yl]-3-oxo-propyl]oxazolidin-2-one], 177 nM.
With `O=C1N[C@H](CCC(=O)N2CC(c3cnc(N4CCC(C(F)(F)F)C4)cn3)C2)CO1` (stereo partly drawn) [Example 105, (4R)-4-[3-Oxo-3-[3-[5-[3-(trifluoro-methyl)pyrrolidin-1-yl]pyrazin-2-yl]azetidin-1-yl]propyl] oxazolidin-2-one], the IC50 was determined as 43 nM.
As for `O=C1N[C@H](CCC(=O)N2CC(c3ncc(N4CCC(C(F)(F)F)C4)cn3)C2)CO1` (stereo partly drawn) [Example 106, (4R)-4-[3-Oxo-3-[3-[5-[3-(trifluoro-methyl)pyrrolidin-1-yl]pyrimidin-2-yl]azetidin-1-yl]propyl]oxazolidin-2-one], the figure is 729 nM.
The value for `O=C1N[C@H](CCC(=O)N2CC(c3cnc(N4CCC(C(F)(F)F)C4)nc3)C2)CO1` (stereo partly drawn) [Example 107, (4R)-[3-Oxo-3-[3-[2-[3-(trifluoro-methyl)pyrrolidin-1-yl]pyrimidin-5-yl]azetidin-1-yl]propyl]oxazolidin-2-one] was 216 nM.
